Data published in US20200022967A1, “Use of 2-carboxamide cycloamino urea derivatives in the treatment of EGFR dependent diseases or diseases that have acquired resistance to agents that target EGFR family members” (Novartis AG, priority 2010, published 2020).

What was measured:
NCI-N87 tumors = assay: NCI-N87 xenograft in CB17 SCID mice, Compound A alone and with lapatinib (Example 6); format: in vivo; conditions: for Median TTE: control 26.2, vs G1 ***; for Mean Tumor Volume (no. animals, n) Day 59: n=1
Method: The NCI-N87 cells were harvested with 5× trypsin. Eight days after tumor implantation (on Day 1 of the study), mice with an individual tumor volume of 88-196 mm^3 were sorted into 10 groups of ten mice with a group mean tumor volume of 143-149 mm^3.
Where applicable, data is presented as mean±SEM. Each animal was euthanized when its neoplasm reached the endpoint volume (1000 mm^3), or on the last day of the study (Day 59). Time to endpoint (TTE) is calculated by the equation: TTE=(log10(endpoint volume)−b)/m, where TTE is expressed in days, endpoint volume is in mm3, b is the intercept and m is the slope of the line obtained by linear regression of a log-transformed tumor growth data set. Treatment efficacy was determined from Tumor Growth Delay (TGD), which was defined as the increase in the median time to endpoint (TTE) for a treatment group compared to the control group (TGD=T−C), expressed in days, or as a percentage of the median TTE of the control group (% TGD=((T−C)/C)×100), wherein T=median TTE for a treatment group and C=median TTE for the designated control group.
Statistical and graphical analyses was performed with Prism 3.03 (GraphPad) for Windows. For all tests, the level of significance of differences was done using ANOVA, with Bartlett's test; and a post-hoc Dunnett's multiple comparison test compared the mean change for each drub-treated group to the mean for Group 1. Survival was analyzed by the Kaplan-Meier method. The logrank test was employed to analyze the significance of the difference between the overall survival experiences of two groups, based on time to endpoint (TTE) values. The two-tailed statistical analyses were conducted at P=0.05. Prism summarizes test results as not significant (ns) at P>0.05, significant (symbolized by “*”) at 0.01<P<0.05, very significant (symbolized by “**”) at 0.001<P<0.01, and extremely significant (symbolized by “***”) at P<0.001.

[1] = Body weight nadir and deaths in NCI-N87 lapatinib study (Example 6)
Method: Treatments started eight days post tumor cell implantation and lasted for 59 consecutive days or until tumor volume=1000 mm^3. […] For the b.i.d. dosing schedule, the first dose was given p.m. on Day 1 and last dose a.m. on Day 22. […] Body weights were recorded on Days 1-5, on each treatment day (except weekends), and twice weekly thereafter until end of the study.

[2] = Body weight loss in HBCx-5 xenograft study (Example 5); conditions: capecitabine single agent; significant and transient
Method: Experiments were performed in female HSD: athymic nude-Foxn1nu mice approximately 8-10 weeks of age and weighing approximately 19-25 grams. The mice were allowed to acclimate with access to food and water ad libitum for 6 days prior to the study. When body weight loss reaches 15% compared to the first day of treatment, DietGel® was provided to the animals.
The mice were divided into five groups each comprising ten mice. Treatments were initiated 34 days post-implantation of the HBCx-5 xenograft tumor. […] For xenograft implantation, the mice were anesthetized with 100 mg/kg ketamine hydrochloride and 10 mg/kg xylazine. Using asceptic technique, the mice were grafted in interscapular with 3 mm on 3 mm tumor fragment. […] Tumors were measured with calipers three times per week at the start of dosing. Tumors were calculated using the formula: =width^2×length/2. Tumor size and body weight were measured three times per week during the treatment period. The planned endpoints for the experiment were a treatment phase of six weeks and no follow-up phase.
Antitumor activity is expressed as T/C % (mean change of tumor volume of treated animals/mean change of tumor volume of control animals)×100. Tumor volume and relative body weight were used for statistical analysis. Group comparisons were performed using a Mann Whitney non parametric test between treated group and control group.

HBCx-5 xenograft tumor = assay: HBCx-5 breast cancer xenograft, antitumor activity (Example 5); format: in vivo, mice; conditions: capecitabine 40 mg/kg single agent p.o., five times per week, two cycles; p<0.001
Method: Compound A was suspended at mg/ml in 0.5% methylcellulose (Sigma Aldrich, St. Louis, Mo.). It was homogenized by stirring vortexing and sonication. The suspension was stored at 4° C. for 7 days protected from light. […] Stock solution at 21 mg/ml was diluted just before administration at 1 mg/ml with sterile water for injection. Capecitabine (Xeloda®, Roche) at […] was kept at 4° C. protected from light. Capecitabine pellets were crushed and suspended in NaCl 0.9%.
Dose was body weight adjusted at each injection.
Capecitabine was administered by oral gavage (p.o.) at […], five times per week for two weeks (i.e., five consecutive dosing days/week). After a one week rest, a second treatment cycle was performed.

[3] = Group 4 (10 animals): lapatinib 50 mg/kg p.o. b.i.d.
[4] = Group 4: lapatinib 50 mg/kg p.o. b.i.d.
[5] = Group 5 (10 animals): lapatinib 100 mg/kg p.o. once daily
[6] = Group 5: lapatinib 100 mg/kg p.o. once daily
[7] = Group 6 (9 animals): lapatinib 150 mg/kg p.o. once daily
[8] = Group 6: lapatinib 150 mg/kg p.o. once daily

SMILES: CS(=O)(=O)CCNCc1ccc(-c2ccc3ncnc(Nc4ccc(OCc5cccc(F)c5)c(Cl)c4)c3c2)o1 [lapatinib]
- Regressions CR (NCI-N87 tumors; [3]): CR: 0
- Regressions PR (NCI-N87 tumors; [3]): PR: 0,
- Median TTE (NCI-N87 tumors; Group 4 (10 animals): lapatinib 50 mg/kg p.o. b.i.d. for 21 days): 47.7 days
- % TGD (NCI-N87 tumors; [4]): 66%
- Mean Tumor Volume (no. animals, n) Day 59 (NCI-N87 tumors; [4]): 608 (1)
- Regressions CR (NCI-N87 tumors; [5]): CR: 0
- Regressions PR (NCI-N87 tumors; [5]): PR: 0,
- % TGD (NCI-N87 tumors; [6]): 82%
- T-C (NCI-N87 tumors; [6]): 16.4 days
- Mean Tumor Volume (no. animals, n) Day 59 (NCI-N87 tumors; [6]): 750 (1)
- Regressions CR (NCI-N87 tumors; [7]): CR: 0
- Regressions PR (NCI-N87 tumors; [7]): PR: 1,
- Median TTE (NCI-N87 tumors; Group 6 (9 animals): lapatinib 150 mg/kg p.o. once daily for 21 days): 50.6 days
- % TGD (NCI-N87 tumors; [8]): 63%
- T-C (NCI-N87 tumors; [8]): 24.4 days
- Deaths (TR/NTR) [1, 3]: 0
- Deaths (TR/NTR) [1, 5]: 0
- Deaths NTR = non-treatment related [1, 8]: NTR: 1
- Deaths TR = treatment-related [1, 8]: TR: 0

SMILES: CCCCCOC(=O)Nc1nc(=O)n([C@@H]2O[C@H](C)[C@@H](O)[C@H]2O)cc1F [Capecitabine, reference compound]
- body weight loss [2]: 9.1%
- T/C (HBCx-5 xenograft tumor): 9.03%
